Nine compounds from patent US12084431B2, “Pharmaceutical salts of pyrimidine derivatives and method of treating disorders” (ARIAD Pharmaceuticals, Inc., priority 2018, dated 2024) can be followed below.

Series [1] is described as follows: Vapour sorption analysis (GVS, hygroscopicity). It counts as physicochemical. Particulars: % uptake at 90% RH. The method, then: Approximately 10 mg of the sample was placed into a mesh vapor sorption balance pan and loaded into an IGASorp Moisture Sorption Analyzer balance by Hiden Analytical. The sample was subjected to a ramping profile from 40 to 90% relative humidity (RH) at 10% increments to 90% RH, maintaining the sample at each step until a stable weight had been achieved (98% step completion). After completion of the sorption cycle, the sample was dried using the same procedure (initially from 90% RH to 0% RH and finally taken back to the starting point of 40% RH). The sorption/desorption profiles were then repeated to give a double-cycle plot. The weight changes during the sorption/desorption cycles were plotted, allowing for the hygroscopic nature of the sample to be determined.

Series [2] can be described thus: Stability stress testing (ambient light, 40° C./75% RH, 80° C., 7 days; XRPD and HPLC purity). Conditions: for Purity, 40° C./75% RH / Purity, 80° C. / Purity, Ambient light: HPLC purity after 7 days, open vial; for Purity, Ambient light: room temperature; for XRPD after storage: 7 days; for Input purity: HPLC purity before stress storage; for Chemical Stability: summary in Table 17. The class given is physicochemical. The method, then:
Approximately 5 mg of the appropriate samples were placed into 2 mL clear glass vials and the vials were all stored open under the conditions of ambient light, 40° C./75% RH, and 80° C. for 7 days, respectively. The ambient light sample was left open on the bench at room temperature. The 80° C. sample was placed open into an 80° C. oven.

The nature of series [3]: Thermodynamic aqueous solubility studies (de-ionized water, 24 h, HPLC concentration, filtrate pH, XRPD of solid). Conditions: for solubility at 24 h: de-ionized water, pH 6.97, water, thermodynamic from solid; for pH at Saturation: pH of filtrate after 24 h slurry in de-ionized water (pH 6.97), ambient temperature.
Description: The resulting solid material was isolated by centrifugation and analyzed by XRPD, while the filtrate was analyzed by HPLC for concentration determination. The pH of the resulting filtrate was also determined.
The nature of series [4]: Phase 1/2 study, safety (adverse events, dose limiting toxicities, MTD). Particulars: human, in vivo. The method, then:
Patients with advanced NSCLC refractory to standard therapy received daily oral doses (5-120 mg) of Compound (A) in the dose-escalation phase. Compound (A) was provided as polymorphic Form-I of the succinate salt of Compound (A). Compound (A) was formulated as a drug-in-capsule with no excipients and administered orally. Preliminary antitumor activity (by RECIST v1.1), safety and pharmacokinetics are reported for patients receiving at least one dose.
As part of the same phase ½ study as described in Example 12, a dose escalation study was performed. […] 2018.
The phase 2 portion of the study was initiated to expand the study in two 160 mg QD cohorts (EGFR exon 20 mutant NSCLC patients with or without brain metastases) and continue to enroll more patients in the 120 mg cohort.

Series [5] deals with advanced NSCLC (EGFR exon 20 insertions). Description: Phase 1/2 study, antitumor activity / disease assessment by RECIST v1.1. It counts as in vivo, human. Conditions: 160 mg QD. The method, then: 52 patients were enrolled as of 30 Jan. 2018.
Disease stabilization started to be reported at the 40 mg QD cohort. Disease assessments for patients who had at least one disease assessment following treatment with Compound (A) are shown in Table 21. All patients who responded have EGFR exon 20 insertion mutations and had previously been treated with platinum-based chemotherapy, EGFR TKIs, or PD-1 inhibitors.

Where [6] appears, read: all storage conditions (ambient light, 40° C./75% RH, 80° C.).
Setting [7] is: Solubility in Water, de-ionized water (pH 6.97), slurry shaken at ambient temperature for 24 h, filtrate by HPLC, salts of Compound (A).
The mark [8] stands for this setting: other 2 conditions (40° C./75% RH and 80° C.).
[9] abbreviates: number of the 26 patients in efficacy analysis.

`C=CC(=O)Nc1cc(Nc2ncc(C(=O)OC(C)C)c(-c3cn(C)c4ccccc34)n2)c(OC)cc1N(C)CCN(C)C` [Free Base, isopropyl 2-((5-acrylamido-4-((2-(dimethylamino)ethyl) (methyl)amino)-2-methoxyphenyl)amino)-4-(1-methyl-1H-indol-3-yl)pyrimidine-5-carboxylate]: the “GVS (Hygroscopicity)” value in series [1] was 0.3%. In series [2], the “Purity, 40° C./75% RH” value is listed as 99.5 and the “Purity, 80° C.” value was found to be 99.5. In addition, in series [2] (ambient light), the “Purity, Ambient light” value is given as 99.5. Also, in series [3], the solubility at 24 h is under 10 µg/mL and the “pH at Saturation” value is given as 7.81.
Turning to `C=CC(=O)Nc1cc(Nc2ncc(C(=O)OC(C)C)c(-c3cn(C)c4ccccc34)n2)c(OC)cc1N(C)CCN(C)C.O=C(O)/C=C/C(=O)O` [Fumarate, isopropyl 2-((5-acrylamido-4-((2-(dimethylamino)ethyl) (methyl)amino)-2-methoxyphenyl)amino)-4-(1-methyl-1H-indol-3-yl)pyrimidine-5-carboxylate fumarate], the “GVS (Hygroscopicity)” value in series [1] was 2.0%. Besides, the XRPD after storage entry in series [2] (setting [6]) is on record as “No change under all storage”. In addition, in series [2], the “Purity, 40° C./75% RH” value was found to be 99.5; the “Purity, 80° C.” value came out at 99.5; the Input purity was 99.7; the “Chemical Stability” value is listed as “Stable”. Further, in series [2] (ambient light), the “Purity, Ambient light” value came to 99.5. For the same compound, in series [3] (setting [7]), the solubility at 24 h is 100 µg/mL. The “pH at Saturation” value in series [3] is reported as 3.98.
Take `Br.C=CC(=O)Nc1cc(Nc2ncc(C(=O)OC(C)C)c(-c3cn(C)c4ccccc34)n2)c(OC)cc1N(C)CCN(C)C` [HBr, isopropyl 2-((5-acrylamido-4-((2-(dimethylamino)ethyl) (methyl)amino)-2-methoxyphenyl)amino)-4-(1-methyl-1H-indol-3-yl)pyrimidine-5-carboxylate hydrobromide]: the “GVS (Hygroscopicity)” value in series [1] worked out at 0.6%. In addition, the XRPD after storage entry in series [2] (setting [6]) is “No change under all storage”. In series [2], the “Purity, 40° C./75% RH” value is 99.6; the “Purity, 80° C.” value was determined as 99.5; the Input purity was determined as 99.7; the “Chemical Stability” value is reported as “Stable”. In addition, the “Purity, Ambient light” value in series [2] (ambient light) is on record as 99.6. For the same compound, in series [3] (setting [7]), the solubility at 24 h was 100 µg/mL. The “pH at Saturation” value in series [3] is 6.30.
With `C=CC(=O)Nc1cc(Nc2ncc(C(=O)OC(C)C)c(-c3cn(C)c4ccccc34)n2)c(OC)cc1N(C)CCN(C)C.Cl` [HCl, isopropyl 2-((5-acrylamido-4-((2-(dimethylamino)ethyl) (methyl)amino)-2-methoxyphenyl)amino)-4-(1-methyl-1H-indol-3-yl)pyrimidine-5-carboxylate hydrochloride], the “GVS (Hygroscopicity)” value in series [1] came out at 10.%. In addition, in series [2] (ambient light), the XRPD after storage result was “No change at ambient light;” and the “Purity, Ambient light” value came out at 95.1. The XRPD after storage entry in series [2] (setting [8]) is “changes observed in other 2”. Besides, in series [2], the “Purity, 40° C./75% RH” value is given as 74.5; the “Purity, 80° C.” value stood at 91.3; the Input purity came to 99.0; the “Chemical Stability” value is “Degradation”. Besides, the solubility at 24 h in series [3] (setting [7]) is 5800 µg/mL. Also, the “pH at Saturation” value in series [3] was 6.47.
Consider `C=CC(=O)Nc1cc(Nc2ncc(C(=O)OC(C)C)c(-c3cn(C)c4ccccc34)n2)c(OC)cc1N(C)CCN(C)C.CS(=O)(=O)O` [Mesylate, isopropyl 2-((5-acrylamido-4-((2-(dimethylamino)ethyl) (methyl)amino)-2-methoxyphenyl)amino)-4-(1-methyl-1H-indol-3-yl)pyrimidine-5-carboxylate mesylate], for which the “GVS (Hygroscopicity)” value in series [1] is “Drying Form”. In series [2] (ambient light), the XRPD after storage result is recorded as “No change at ambient light;” and the “Purity, Ambient light” value came to 99.6. Further, in series [2], the “Purity, 40° C./75% RH” value was 99.6; the “Purity, 80° C.” value amounted to 99.6; the Input purity amounted to 99.7; the “Chemical Stability” value is listed as “Stable”. Further, the solubility at 24 h in series [3] (setting [7]) was over 70000 µg/mL. For the same compound, the “pH at Saturation” value in series [3] turned out to be 2.90.
As to `C=CC(=O)Nc1cc(Nc2ncc(C(=O)OC(C)C)c(-c3cn(C)c4ccccc34)n2)c(OC)cc1N(C)CCN(C)C.O=C(O)C(=O)O` [Oxalate, isopropyl 2-((5-acrylamido-4-((2-(dimethylamino)ethyl) (methyl)amino)-2-methoxyphenyl)amino)-4-(1-methyl-1H-indol-3-yl)pyrimidine-5-carboxylate oxalate], the “GVS (Hygroscopicity)” value in series [1] worked out at 2.0%. Besides, in series [2] (ambient light), the XRPD after storage entry is recorded as “No change at ambient light;” and the “Purity, Ambient light” value is given as 99.6. Further, the XRPD after storage entry in series [2] (setting [8]) is “minor changes observed in”. Moreover, in series [2], the “Purity, 40° C./75% RH” value was determined as 99.6; the “Purity, 80° C.” value was determined as 99.6; the Input purity worked out at 99.7; the “Chemical Stability” value is on record as “Stable”. For the same compound, the solubility at 24 h in series [3] (setting [7]) worked out at 6800 µg/mL. Further, in series [3], the “pH at Saturation” value is recorded as 3.00.
In the case of `C=CC(=O)Nc1cc(Nc2ncc(C(=O)OC(C)C)c(-c3cn(C)c4ccccc34)n2)c(OC)cc1N(C)CCN(C)C` [Succinate, isopropyl 2-((5-acrylamido-4-((2-(dimethylamino)ethyl) (methyl)amino)-2-methoxyphenyl)amino)-4-(1-methyl-1H-indol-3-yl)pyrimidine-5-carboxylate succinate], in series [1] (succinate), the “GVS (Hygroscopicity)” value came to 1.3%. In series [4], the “patients with any TEAE leading to treatment discontinuation” value was determined as 18.8%, the “patients with at least 1 Grade≥3 TEAE” value is 58.4%, the “patients with at least 1 Grade≥3 TRAE” value worked out at 29.7% and the “patients with at least 1 TEAE” value worked out at 98.0%. In addition, in series [4], the “patients with at least 1 TRAE” value was 91.1%, the “patients with at least 1 treatment-emergent SAE” value is given as 35.6% and the “patients with at least 1 treatment-related SAE” value was found to be 10.9%. In series [5] (26 patients with EGFR exon 20 insertion mutations, 95% CI: 33.37%, 73.41%), the “overall response rate (ORR) (best response)” value is listed as 53.8%. For the same compound, in series [5] (26 patients with EGFR exon 20 insertion mutations, 95% CI: 69.85%, 97.55%), the “disease control rate (DCR)” value worked out at 88.5%. Also, in series [5] (setting [9]), the “confirmed partial response (PR)” value came out at 7 and the “unconfirmed PR awaiting confirmation” value worked out at 6. In addition, the XRPD after storage entry in series [2] (setting [6]) is listed as “No change under all storage”. In series [2] (succinate), the “Purity, 40° C./75% RH” value is 99.6 and the “Purity, 80° C.” value worked out at 99.6. Moreover, the “Purity, Ambient light” value in series [2] (ambient light, succinate) worked out at 99.6. Moreover, in series [2], the Input purity worked out at 99.7 and the “Chemical Stability” value is recorded as “Stable”. Besides, in series [3] (setting [7]), the solubility at 24 h was found to be 1900 µg/mL. For the same compound, the “pH at Saturation” value in series [3] (succinate) came to 5.00.
As for `C=CC(=O)Nc1cc(Nc2ncc(C(=O)OC(C)C)c(-c3cn(C)c4ccccc34)n2)c(OC)cc1N(C)CCN(C)C.O=S(=O)(O)O` [Sulfate, isopropyl 2-((5-acrylamido-4-((2-(dimethylamino)ethyl) (methyl)amino)-2-methoxyphenyl)amino)-4-(1-methyl-1H-indol-3-yl)pyrimidine-5-carboxylate sulfate], the “GVS (Hygroscopicity)” value in series [1] amounted to 11%. Besides, in series [2] (ambient light), the XRPD after storage entry is “No change at ambient light;” and the “Purity, Ambient light” value turned out to be 98.6. In series [2], the “Purity, 40° C./75% RH” value amounted to 96.2; the “Purity, 80° C.” value is recorded as 94.9; the Input purity is 98.3; the “Chemical Stability” value is on record as “Degradation”. Moreover, in series [3], the solubility at 24 h is over 240000 µg/mL and the “pH at Saturation” value is 2.19.
On to “isopropyl 2-((5-acrylamido-4-((2-(dimethylamino)ethyl) (methyl)amino)-2-methoxyphenyl)amino)-4-(1-methyl-1H-indol-3-yl)pyrimidine-5-carboxylate hippurate”, for which the “GVS (Hygroscopicity)” value in series [1] is recorded as 0.2%. In addition, the XRPD after storage result in series [2] (setting [6]) is “No change under all storage”. Besides, in series [2], the “Purity, 80° C.” value worked out at 99.6; the Input purity was 99.7; the “Chemical Stability” value was “Stable”. The “Purity, Ambient light” value in series [2] (ambient light) was determined as 99.6.
